Residues, ends and D or L forms follow the SMILES beside them.
Tests used:
in vitro = settings: human, 30% human serum in RPMI medium
Method: The experiment was performed in RPMI medium with 30% human serum at 37° C. Aliquots of the solution were analysed by HPLC-MS and the relative content was determined using an internal standard (phenol). The experiment was performed in three independent experiments.

Bacillus subtilis = experiment: Minimum inhibitory concentration (MIC) in Mueller-Hinton medium; type: cell-based; settings: relative to Com2
Method: The experiments were performed in Mueller-Hinton medium in three independent experiments.
Analogously to P14, these amino acids have been incorporated into the parental sequence of Com2 and were partially tested on their antimicrobial activity against Gram-positive Bacillus Subtilis 3610 NCIB.

E. feacium = type: cell-based
S. aureus = experiment: MIC against ESKAPE pathogens in Mueller-Hinton medium; type: cell-based; settings: Gram-positive
S. pneumoniae = type: cell-based
K. pneumoniae [1] = type: cell-based
A. baumannii [2] = type: cell-based
P. aeruginosa = type: cell-based
E. cloacae = type: cell-based
E. coli = experiment: MIC against ESKAPE pathogens in Mueller-Hinton medium; type: cell-based; settings: Gram-negative
[3] = Viability of HCT116 cells (cytotoxicity); type: cell-based; settings: human; HCT116 cells in DMEM with 10% FBS; read-out: cytotoxic concentration CC50
Method: (§1) FIGS. 3A and 3B show the viability of HCT116 cells in DMEM with 10% FBS and 1% penicillin/streptomycin (FIG. 3A). The haemolysis experiments were performed with fresh blood from a healthy donor. Both experiments were performed in three independent experiments.
(§2) This is therefore >65-fold higher than the minimum inhibitory concentration against B. subtilis. […] Consequently, the P14 peptide as an antibiotic offers a distinct concentration window for therapeutic use.

HCT116 cells = experiment: Viability of HCT116 cells (cytotoxicity); type: cell-based; settings: CC50 (HCT116) over MIC (B. subtilis)
Method: as §1, §2

human blood = experiment: Haemolysis experiment with fresh blood from a healthy donor; type: cell-based
Method: as §1, §2
3) Haemolysis experiments using human blood from a healthy donor show a haemolytic concentration >50-fold above the minimum inhibitory concentration against B. subtilis.

K. pneumoniae [4] = experiment: Infection model 1: treatment of K. pneumoniae-infected A549 lung cells; type: cell-based; settings: at 8 μM, surviving bacterial colonies
Method: (§3) The number of surviving bacterial colonies after treatment with peptide is shown.
The peptide P14 was tested as an antibiotic against the treatment of K. pneumoniae-infected A549 lung cells.

A. baumannii [5] = experiment: Infection model 2: mouse skin infection with A. baumannii; type: in vivo; settings: A. baumannii infected mice, superficial abrasion
Method: as §3
Infection of the mice was induced by superficial abrasion and incubation with the bacterial culture.

B. subtilis NCIB 3610 = experiment: Fluorescence microscopy of B. subtilis stained with HADA (peptidoglycan synthesis); type: cell-based
Text: Scale bars represent 2 μm. BF are the bright light images.
Fluorescence microscopy of B. subtilis stained with HADA, showing newly synthesised peptidoglycan from control cells.

## N=C(N)NCCC[C@H](NC(=O)[C@H](Cc1c[nH]c2ccccc12)NC(=O)[C@H](Cc1c[nH]c2ccccc12)NC(=O)[C@H](CCCNC(=N)N)NC(=O)[C@@H](N)CCCNC(=N)N)C(=O)N[C@@H](Cc1ccccc1)C(N)=O [Com2, H2N-RRWWRF-CONH2, reference compound] (H-RRWWRF-NH2)
In vitro
  half-life: ~24 min

## CC(=O)Nc1ccc(C(=O)N[C@@H](CCCNC(=N)N)C(=O)N[C@@H](CCCNC(=N)N)C(=O)N[C@@H](Cc2c[n+](Cc3ccc4ccccc4c3)cn2Cc2ccc3ccccc3c2)C(=O)N[C@@H](Cc2c[n+](Cc3ccc4ccccc4c3)cn2Cc2ccc3ccccc3c2)C(=O)N[C@@H](CCCNC(=N)N)C(=O)N[C@@H](Cc2ccccc2)C(N)=O)cc1 [Peptide P14, Aba-RR-Hdn-Hdn-RF-CONH2]
Bacillus subtilis
  minimum inhibitory concentration (MIC) compared to the parent peptide (Com2): > 24 fold
E. feacium
  MIC: 0.8 µM
S. aureus
  MIC: 1.6 µM
S. pneumoniae
  MIC: 2.2 µM
K. pneumoniae [1]
  MIC: 12.5 µM
A. baumannii [2]
  MIC: 6.3 µM
P. aeruginosa
  MIC: 12.5 µM
E. cloacae
  MIC: 25 µM
E. coli
  MIC: 25 µM
In vitro
  half-life: > 840 min
[3]
  CC50: 50.4 ± 4.48 µM
HCT116 cells
  cytotoxic concentration relative to MIC against B. subtilis: > 65 fold
Human blood; HC50 over MIC (B. subtilis)
  haemolytic concentration relative to the MIC value: > 50 fold
Human blood; fresh blood from a healthy donor
  haemolytic concentration HC50: 38.62 ± 2.58 µM
K. pneumoniae [4]
  inhibition of bacterial growth in infected A549 lung cells: complete inhibition of bacterial growth
A. baumannii [5]
  potency in mouse skin infection compared to polymyxin B: can be compared with that of the commonly used polymyxin B
A. baumannii [5]; surviving bacterial colonies
  activity in mouse skin infection compared to control peptide P3: higher activity than the control peptide P3
B. subtilis NCIB 3610
  HADA staining of newly synthesised peptidoglycan: inhibits bacterial polyglycan synthesis

## CN[C@H](CC(C)C)C(=O)N[C@H]1C(=O)N[C@@H](CC(N)=O)C(=O)N[C@H]2C(=O)N[C@H]3C(=O)N[C@H](C(=O)N[C@H](C(=O)O)c4cc(O)cc(O)c4-c4cc3ccc4O)[C@H](O)c3ccc(c(Cl)c3)Oc3cc2cc(c3O[C@@H]2O[C@H](CO)[C@@H](O)[C@H](O)[C@H]2O[C@H]2C[C@](C)(N)[C@H](O)[C@H](C)O2)Oc2ccc(cc2Cl)[C@H]1O [vancomycin, reference compound]
B. subtilis NCIB 3610
  HADA staining of newly synthesised peptidoglycan: no HADA binding to the cell periphery is visible
